Marks after values point to notes of the source that are not given here. Side chains are listed from the residue outwards. Ends that are not written are not given here.
How the values were obtained:
rats with stroke [1] = experiment: Immediate treatment after stroke onset, neural function scores (Zealonga method, 0 no loss to 5 death); assay type: in vivo, SD rats; settings: 0.1 μmol/kg, 24 h after awake, n = 10
Protocol: The in vivo anti-stroke activity of the present invention was represented by neural function scores, with a lower score indicating higher activity. A 10% chloral hydrate solution (400 mg/kg) was injected intraperitoneally into SD male rats (250-300 g) for anesthesia. An open incision of 2 cm in length was longitudinally made slightly on the right to the center of the neck, and the right common carotid artery trunk, carotid external artery and carotid internal artery were dissected along the margin of the inner side of sternocleidomastoid muscles. The open incisions in the carotid internal artery and the proximal end of the common carotid artery were occluded respectively with noninvasive arterial clips. A small open incision was made across the carotid external artery, and the distal end of the carotid external artery was ligated. The arterial clip at the proximal end of the carotid external artery was released, and 10 μl blood was drawn before the proximal end of the common carotid artery was again occluded with the noninvasive arterial clip. The 10 μl blood drawn was placed in a 1 mL EP vial and kept at RT for 30 min for coagulation of blood, and then transferred into a −20° C. refrigerator for 1 h to allow coagulation. After 1 h, the blood clots were taken out, into which 1 mL saline was added, and then broken into uniform microthrombus by using a steel spatula. The microthrombus suspension was then transferred to a 1 mL injector until use. At the same time when the clip on the carotid internal artery of the rat was released, 1 mL thrombus suspension in the injector was slowly injected from the carotid external artery of the rat to its proximal end, and the suspension was injected into the brain of the rat through the carotid internal artery. Subsequently, the proximal end of the carotid external artery was ligated, the arterial clips on the carotid internal artery and the common carotid artery were released, and blood flow was restored. The jugular common vein of the rats was dissected. The vein was immediately ligated, 3 drops of penicillin was dropped at the wound site, the wound was stitched up, and the animals were allowed to come around, as the sham operation group. Or injection of urokinase in normal saline (positive control group, at a dosage of 20000 IU/kg), normal saline (blank control group, at a dosage of 3 ml/kg), TMMZ in normal saline (component control group, at a dosage of 1 μmol/kg), a thrombolytic peptide ARPAK (SEQ. ID NO. 4), GRPAK (SEQ. ID NO. 5), RPAK (SEQ. ID NO. 3) or PAK in normal saline (component control group, at a dosage of 1 μmol/kg), or one of compounds Ia-Il in normal saline (at a dosage of 0.1 μmol/kg) was carried out. 24 h after the rats were awake, the degree of damage in the neural function was evaluated by the Zealonga method. A score of 0 indicated no sign of loss in neural function, 1 indicated the front limbs on the undamaged side could not stretch out, 2 indicated walking toward the undamaged side, 3 indicated tail-chasing walking in circles toward the undamaged side, 4 indicated involuntary walking with disturbance of consciousness, and 5 indicated death.

thrombus = experiment: In vivo anti-thrombus experiment (arteriovenous cannula with thread); design: species or system SD rats; settings: 0.1 μmol/kg by gavage; n = 11
Protocol: SD rats (male, 220 to 230 g) were randomly divided into groups with 11 rats in each group. The rats were fed at a resting state for 1 day and fasted overnight. […] After 30 min, the rats were anesthetized with a 20% urethane solution, and the right carotid artery and the left carotid vein were dissected. A cannula was filled with sodium heparin in normal saline, and one end thereof was inserted into the left vein, while the other end was injected with a certain amount of sodium heparin for anticoagulation with an injector and then inserted into the right artery. Blood flew from the right artery to the left vein through the polyethylene tubing, and the thread attached with thrombus was taken out after 15 min and the weight thereof was recorded. The wet thrombus weight was determined by subtracting the thread weight from the total weight.

[2] = tested on: NO free radicals (acetylcholine induced vasodilation); experiment: NO radical scavenging: inhibition of acetylcholine induced vasodilation of aorta rings; design: species or system Wistar rats; settings: final concentration 5×10^−6 M; n = 6
Protocol: Male Wistar rats weighing 250 to 300 g were starved for 12 h before operation with free access to drinking water, and sacrificed by cervical dislocation. Thoracotomy was immediately carried out and thoracic aorta was taken out, connective tissues attached thereto were dissected, and vessels were cut into aorta rings with a length of 3 to 5 mm and placed into a perfusion bath. The bath contained 15 ml Krebs-Henseleit solution and was kept at a constant temperature of 37° C., into which 95% O2-5% CO2 gas was charged. The anchor to which the aorta rings were immobilized was connected to a tension transducer, and vasomotion curves were recorded on a dual-trace recorder at a paper speed of 1 mm/min. With the static tension adjusted to 1.0 g and 30 min of equilibration, norepinephrine at a final concentration of 10^−8 M was dosed to allow the aorta to contract for preexcitation. Norepinephrine was washed off, followed by 30 min of equilibration, and norepinephrine was added into the bath to a final concentration of 10^−8 M. When the contraction tension was steady at a plateau level, 20 μl normal saline (blank), a 20 μl solution of any one of compounds Ia to Il in normal saline (at a final concentration of 5×10^−6 M), or a 20 μl solution of NO free radical scavenger (1,3-dioxo-2-(4′-oxyacetoxyl-phenyl)-4,4,5,5-tetramethylimidazoline, TMMZ) in normal saline (at a final concentration of 5×10^−6 M) was added into the bath. When stabilized, a 20 μl acetylcholine in normal saline was added (at a final concentration of 10^−6 M). The NO scavenging ability of the drugs was expressed as a percentage of inhibition of acetylcholine induced vasodilation.

rats with stroke [3] = experiment: Successive treatments with 1 μmol/kg Ie starting 6 h after the onset of stroke (Zealonga scores); assay type: in vivo, SD rats
Protocol: The efficacy was represented by neural function scores, and a lower score indicates higher efficacy. A 10% chloral hydrate solution was injected intraperitoneally into male SD rats at a dosage of 400 mg/kg body weight for anesthesia. A longitudinal open incision was made at the center of the neck, and the right common carotid artery trunk was dissected (about 3 cm in length). Carotid external artery branches were each dissected and ligated at the hyoid level, and the carotid internal artery was dissected at the swollen part of the neck. The open incision in the carotid internal artery and the proximal end of the common carotid artery were occluded respectively with noninvasive arterial clips, and the distal end of the carotid external artery was ligated. A catheter containing 0.5 mL thrombus suspension in normal saline was inserted in the carotid external artery trunk. At the same time when the clip on the carotid internal artery was released, the 0.5 mL thrombus suspension in normal saline in the catheter slowly flew from the carotid external artery to its proximal end, and then was injected into the arteries in brain through the carotid internal artery. Subsequently, the proximal end of the carotid artery was ligated, the arterial clips on the carotid internal artery and the common carotid artery were released, and blood flow was restored. After the wound was stitched up, 20,000 IU penicillin was intramuscularly injected for prevention from infection. After 6 h, compound Ie in normal saline (at a dosage of 1 μmol/kg, n=11), urokinase in normal saline (at a dosage of 20000 IU/kg, n=6) or tPA in normal saline (at a dosage of 3 mg/kg, n=6) was infused through the tail vein. Infusion of compound Ie in normal saline through rat tail vein was carried out once per day for 6 consecutive days, observed for 7 days. The rats were compared to themselves each day, and evaluated for the degree of damage in neural function by the Zealonga method. Alternatively, infusion of urokinase in normal saline through rat tail vein was carried out once per day for two consecutive days, the rats were compared to themselves each day, and evaluated for the degree of damage in neural function by the Zealonga method. Alternatively, infusion of tPA in normal saline through rat tail vein was carried out once per day for two consecutive days, the rats were compared to themselves each day, and evaluated for the degree of damage in neural function by the Zealonga method. A score of 0 indicated no sign of loss in neural function, 1 indicated the front limbs on the undamaged side could not stretch out, 2 indicated walking toward the undamaged side, 3 indicated tail-chasing walking in circles toward the undamaged side, 4 indicated involuntary walking with disturbance of consciousness, and 5 indicated death.

[4] = Day 1, urokinase 20000 IU/kg once per day from 6 h after stroke onset, n=6
[5] = Day 2, urokinase 20000 IU/kg once per day from 6 h after stroke onset, n=6

Substance	Neural function scores (Mean ± SD) (rats with stroke [1])	Wet weight of thrombus (Mean ± SD mg) (thrombus) [mg]	Percentage of inhibition (Mean ± SD %) of vasodilatation induced by acetylcholine [2] [%]	further results
1,3-dioxo-2-{4′-oxyacetyl-[N^ω-(Arg-Pro-Ala-Lys)-Lys-Arg-Gly-Asp-Ser]phenyl}-4,4,5,5-tetramethylimidazoline [Ig]	1.00 ± 1.19 ^b	17.89 ± 2.05	24.40	–
1,3-dioxo-2-{4′-oxyacetyl-[N^ω-(Gly-Arg-Pro-Ala-Lys)-Lys-Arg-Gly-Asp-Ser]phenyl}-4,4,5,5-tetramethylimidazoline	1.22 ± 1.32 ^b	19.46 ± 1.84	17.60	–
1,3-dioxo-2-{4′-oxyacetyl-[N^ω-(Arg-Pro-Ala-Lys)-Lys-Arg-Gly-Asp-Phe]phenyl}-4,4,5,5-tetramethylimidazoline [Ii]	0.87 ± 1.05 ^c	17.79 ± 2.02	13.75	–
1,3-dioxo-2-{4′-oxyacetyl-[N^ω-(Ala-Arg-Pro-Ala-Lys)-Lys-Arg-Gly-Asp-Ser]phenyl}-4,4,5,5-tetramethylimidazoline [Ia]	1.00 ± 1.01 ^b	24.32 ± 2.10	22.82	–
1,3-dioxo-2-{4′-oxyacetyl-[N^ω-(Arg-Pro-Ala-Lys)-Lys-Arg-Gly-Asp-Val]phenyl}-4,4,5,5-tetramethylimidazoline [Ih]	1.33 ± 1.22 ^b	18.24 ± 1.89	–	–
urokinase	–	–	–	number of rats scored Score 1 (rats with stroke [3]; [4]): 1 rat rats; number of rats scored Score 2 (rats with stroke [3]; [4]): 1 rat rats; number of rats scored Score 3 (rats with stroke [3]; [4]): 4 rats; number of rats scored Score 0 (rats with stroke [3]; [5]): 1 rat rats; number of rats scored Score 2 (rats with stroke [3]; [5]): 1 rat rats; rats died (rats with stroke [3]; out of 6 rats, within 24 h, urokinase 20000 IU/kg each day from 6 h after stroke onset): 4; autopsy on the dead rats (rats with stroke [3]; urokinase 20000 IU/kg each day from 6 h after stroke onset): hemorrhage in internal organs, particularly severe hemorrhage in lungs
1,3-dioxo-2-{4′-oxyacetyl-[N^ω-(Ala-Arg-Pro-Ala-Lys)-Lys-Arg-Gly-Asp-Val]phenyl}-4,4,5,5-tetramethylimidazoline [Ib]	0.56 ± 1.01 ^c	20.14 ± 2.45	–	–
1,3-dioxo-2-{4′-oxyacetyl-[N^ω-(Gly-Arg-Pro-Ala-Lys)-Lys-Arg-Gly-Asp-Phe]phenyl}-4,4,5,5-tetramethylimidazoline [If]	0.60 ± 0.84 ^c	17.99 ± 2.47	–	–
1,3-dioxo-2-{4′-oxyacetyl-[N^ω-(Pro-Ala-Lys)-Lys-Arg-Gly-Asp-Phe]phenyl}-4,4,5,5-tetramethylimidazoline (K([Lys-Ala-Pro])RGDF; not fully specified (N-terminus); also: 4′-oxyacetylphenyl-1,3-dioxo-4,4,5,5-tetramethylimidazoline (nitronyl nitroxide) conjugate, attachment amine not clear) [Il]	0.50 ± 0.53 ^c	19.32 ± 2.56	22.62	–
1,3-dioxo-2-{4′-oxyacetyl-[N^ω-(Pro-Ala-Lys)-Lys-Arg-Gly-Asp-Ser]phenyl}-4,4,5,5-tetramethylimidazoline (K([Lys-Ala-Pro])RGDS; not fully specified (N-terminus); also: 4′-oxyacetylphenyl-1,3-dioxo-4,4,5,5-tetramethylimidazoline (nitronyl nitroxide) conjugate, attachment amine not clear) [Ij]	0.90 ± 1.10 ^c	19.45 ± 1.79	27.22	–
1,3-dioxo-2-{4′-oxyacetyl-[N^ω-(Ala-Arg-Pro-Ala-Lys)-Lys-Arg-Gly-Asp-Phe]phenyl}-4,4,5,5-tetramethylimidazoline [Ic]	0.89 ± 1.36 ^c	20.50 ± 2.26	21.78	–
1,3-dioxo-2-{4′-oxyacetyl-[N^ω-(Pro-Ala-Lys)-Lys-Arg-Gly-Asp-Val]phenyl}-4,4,5,5-tetramethylimidazoline (K([Lys-Ala-Pro])RGDV; not fully specified (N-terminus); also: 4′-oxyacetylphenyl-1,3-dioxo-4,4,5,5-tetramethylimidazoline (nitronyl nitroxide) conjugate, attachment amine not clear) [Ik]	0.56 ± 0.53 ^c	22.25 ± 2.25	11.13	–
